The structures appear in SMILES notation. Bounds are passed on as bounds.

T1 sequence (P42262 25-883 isoform P42262-2 limits assumed): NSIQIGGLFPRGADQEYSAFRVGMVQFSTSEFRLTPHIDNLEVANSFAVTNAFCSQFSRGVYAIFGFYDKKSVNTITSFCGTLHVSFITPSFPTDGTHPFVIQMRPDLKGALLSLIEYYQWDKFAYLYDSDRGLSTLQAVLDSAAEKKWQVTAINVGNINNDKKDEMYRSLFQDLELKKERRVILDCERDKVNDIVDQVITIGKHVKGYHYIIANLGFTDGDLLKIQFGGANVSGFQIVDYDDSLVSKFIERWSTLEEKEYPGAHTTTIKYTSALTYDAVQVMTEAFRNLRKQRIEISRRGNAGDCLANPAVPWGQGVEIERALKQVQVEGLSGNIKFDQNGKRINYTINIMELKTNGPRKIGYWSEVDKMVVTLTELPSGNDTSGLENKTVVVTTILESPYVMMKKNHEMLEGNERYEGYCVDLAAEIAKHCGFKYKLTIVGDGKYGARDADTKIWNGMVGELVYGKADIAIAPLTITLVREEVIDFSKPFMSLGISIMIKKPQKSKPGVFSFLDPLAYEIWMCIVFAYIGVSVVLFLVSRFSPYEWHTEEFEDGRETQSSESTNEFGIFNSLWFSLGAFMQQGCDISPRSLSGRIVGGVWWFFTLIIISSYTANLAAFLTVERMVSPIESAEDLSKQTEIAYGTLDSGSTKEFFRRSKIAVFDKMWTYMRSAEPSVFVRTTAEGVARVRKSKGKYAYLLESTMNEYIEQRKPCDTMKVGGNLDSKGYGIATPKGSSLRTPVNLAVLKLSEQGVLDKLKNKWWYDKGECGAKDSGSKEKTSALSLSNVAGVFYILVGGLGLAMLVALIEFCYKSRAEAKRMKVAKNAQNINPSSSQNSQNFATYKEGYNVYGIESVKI

This assay addresses T1, human GluR2 flip (unedited) AMPA receptor subunit (Homo sapiens, UniProt P42262).
T1 construct: expressed in transfected cells
In words: Calcium influx fluorescence assay (FLUO4, FLIPR), potentiation of glutamate response. Conditions: HEK293; HEK 293 cells expressing human GluR2 flip (unedited); fluorescence increase relative to that induced by cyclothiazide at maximum response; read-out: activity relative to cyclothiazide (at its maximal response). The format is cell-based. The protocol: The ability of the compounds of the invention to potentiate glutamate receptor-mediated response may be determined a) by using fluorescent calcium-indicator dyes such as FLUO4 and additionally b) by measuring glutamate-evoked current recorded from human GluR2 flip unedited HEK293 cells.
384 well plates are prepared containing confluent monolayer of HEK 293 cells either stably expressing or transiently transfected with human GluR2 flip (unedited) AMPA receptor subunit. These cells form functional homotetrameric AMPA receptors. The tissue culture medium in the wells are discarded and the wells are each washed three times with standard buffer (80 μL) for the stable cell line (145 mM NaCl, 5 mM KCl, 1 mM MgCl2, 2 mM CaCl2, 20 mM N-[2-hydroxyethyl]-piperazine-N-[2-ethanesulfonic acid (HEPES), 5.5 mM glucose, pH 7.3) or with a Na-free buffer for the transient transfected cells (145 mM N-methyl-glucamine instead of NaCl). The plates are then incubated for 60 minutes in the dark with 2 μM FLUO4-AM dye (20 μL) (Molecular Probes, Netherlands) at room temperature to allow cell uptake of the FLUO-4AM, which is then converted to FLUO-4 by intracellular esterases which is unable to leave the cell. After incubation each well is washed three times with buffer (80 μL) (30 μL of buffer remained in each well after washing).
Compounds of the invention (or reference compounds such as cyclothiazide) are dissolved in dimethylsulfoxide (DMSO) at a stock concentration of 10 mM. These solutions are further diluted with DMSO using a Biomek FX (Beckman Coulter) in a 384 compound plate. Each dilution (1 μL) is transferred to another compound plate and buffer (50 μL) is added. An agonist stimulus (glutamate) plate is prepared by dissolving sodium glutamate in water to give a concentration of 100 mM. This solution is diluted with buffer to give a final concentration of 500 μM and dispensed into another 384-well plate (50 μL/well) using a Multidrop (Thermolabsystems).
The cell plate is then transferred into a fluorescence imaging plate based reader [such as the FLIPR384 (Molecular Devices)]. A baseline fluorescence reading is taken over a 10 to 240 second period, and then 10 μL from each plate containing a compound of the invention made up in standard buffer solution (in a concentration range from 100 μM to 10 μM) is added (to give a final concentration in the range 30 μM to 3 μM). The fluorescence is read over 5 minute period. 500 μM glutamate solution (10 μL) is added (to give a final concentration of 100 μM). The fluorescence is then read over a 4 minute period. The activities of the compounds of the invention and reference compounds are determined by measuring peak fluorescence after the last addition. The activity is also expressed relative to the fluorescence increase induced by cyclothiazide at their maximum response (i.e. greater than 30 μM).
The assay described above is believed to have an effective limit of detection of a pEC50 in the region of 3.5-4.0 due to the limitations of compound solubility. The pEC50 result is generally considered to be accurate +/−0.3.
Turning to `CC(C)S(=O)(=O)N[C@@H]1COC[C@@H]1c1ccc(-c2ccc(F)nc2)cc1` (racemic) [Example 1, N-{cis-4-[4-(6-fluoro-3-pyridinyl)phenyl]tetrahydro-3-furanyl}-2-propanesulfonamide], the Emax was at least 50%.

In the case of `Cc1ccc(-c2ccc([C@H]3COC[C@H]3NS(=O)(=O)C(C)C)cc2)cn1` (racemic) [Example 2, N-{cis-4-[4-(6-methyl-3-pyridinyl)phenyl]tetrahydro-3-furanyl}-2-propanesulfonamide], the Emax is at least 50%.

Turning to `CC(C)S(=O)(=O)N[C@@H]1COC[C@@H]1c1ccc(-c2ccc(F)cn2)cc1` (racemic) [Example 3, N-{cis-4-[4-(5-fluoro-2-pyridinyl)phenyl]tetrahydro-3-furanyl}-2-propanesulfonamide], the Emax was at least 50%.

For the compound `CC(C)S(=O)(=O)N[C@@H]1COC[C@@H]1c1ccc(-c2cncc(F)c2)cc1` (racemic) [Example 4, N-{cis-4-[4-(5-fluoro-3-pyridinyl)phenyl]tetrahydro-3-furanyl}-2-propanesulfonamide], the Emax is at least 50%.

For the compound `CC(C)S(=O)(=O)N[C@@H]1COC[C@@H]1c1ccc(-c2ccc(Cl)cn2)cc1` (racemic) [Example 5, N-{cis-4-[4-(5-chloro-2-pyridinyl)phenyl]tetrahydro-3-furanyl}-2-propanesulfonamide], the Emax is at least 50%.

Consider `Cc1cncc(-c2ccc([C@H]3COC[C@H]3NS(=O)(=O)C(C)C)cc2)c1` (racemic) [Example 6, N-{cis-4-[4-(5-methyl-3-pyridinyl)phenyl]tetrahydro-3-furanyl}-2-propanesulfonamide], for which the Emax is at least 50%.

Turning to `CC(C)S(=O)(=O)N[C@@H]1COC[C@@H]1c1ccc(-c2ccc(F)cc2)cc1` (racemic) [Example 7, N-[cis-4-(4′-fluoro-4-biphenylyl)tetrahydro-3-furanyl]-2-propanesulfonamide], the Emax is at least 50%.

Consider `CC(C)S(=O)(=O)N[C@@H]1COC[C@@H]1c1ccc(-c2ccc(C#N)cc2)cc1` (racemic) [Example 8, N-[cis-4-(4′-cyano-4-biphenylyl)tetrahydro-3-furanyl]-2-propanesulfonamide], for which the Emax is at least 50%.

In the case of `CC(=O)c1cccc(-c2ccc([C@H]3COC[C@H]3NS(=O)(=O)C(C)C)cc2)c1` (racemic) [Example 9, N-[cis-4-(3′-acetyl-4-biphenylyl)tetrahydro-3-furanyl]-2-propanesulfonamide], the Emax was at least 50%.

On to `CC(C)S(=O)(=O)N[C@@H]1COC[C@@H]1c1ccc(-c2ccc3c(c2)OCO3)cc1` (racemic) [Example 10, N-{cis-4-[4-(1,3-benzodioxol-5-yl)phenyl]tetrahydro-3-furanyl}-2-propanesulfonamide], for which the Emax was at least 50%.

Turning to `CC(C)S(=O)(=O)N[C@@H]1COC[C@@H]1c1ccc(-c2ccsc2)cc1` (racemic) [Example 11, N-{cis-4-[4-(3-thienyl)phenyl]tetrahydro-3-furanyl}-2-propanesulfonamide], the Emax is at least 50%.

`CC(C)S(=O)(=O)N[C@@H]1COC[C@@H]1c1ccc(-c2cccs2)cc1` (racemic) [Example 12, N-{cis-4-[4-(2-thienyl)phenyl]tetrahydro-3-furanyl}-2-propanesulfonamide]: the Emax was at least 50%.
